In patent US8669244B2, “Cucurbitane-triterpenoid compounds, pharmaceutical composition, use and preparation method thereof” (National Taiwan University, priority 2011, dated 2014):
pEC50: −log10 of the molar value.

Key:
[1] = molecular target: T1, GAL4-hERβ ligand binding domain (LBD) chimeric receptor (Homo sapiens, UniProt Q92731); test: Transactivation assay for estrogen receptor, ALP reporter, compound alone (ERβ); format: cell-based; settings: for pEC50: compound alone; for Activation of ERβ: under tested condition (maximum tolerable 2 μM); for Maximum activation for ERβ: concentration not given
T1 construct: expressed in transfected cells; host or cells: CHO-K1 (Chinese hamster cells), transient co-transfection with (UAS)4-ALP reporter plasmid
From the text: (§1) 1. Estrogen Activity Analysis: Transactivation Assay for Estrogen Receptor
(§2) Plasmid pBKCMV containing GAL4-hERα (or ERβ) ligand binding domain (LBD) chimeric receptors and plasmid containing (UAS)4-alkaline phosphatase (ALP) […] were co-transfected into Chinese hamster cells (CHO-K1). Compounds with estrogenic activity would interact with estrogen-specific ER to induce the binding of GAL4 and upstream activation sequence (UAS)4 specifically to initiate the expression of ALP gene. Therefore, the ALP activity can be used to determine whether the samples to be assayed have the estrogenic activity.
(§3) The CHO-K1 cell purchased from the Food Industry Research and Development Institute Taiwan with an accession number of CCRC 60006 were cultivated with medium containing 10% FBS and Ham's F12 nutrient mixture (GIBCOBRL). Cells in high confluence were plated onto 96-well culture plate the day before transfection. The plate was then washed to remove the serum during the day of transfection, followed by addition of two plasmid DNA, GAL4-hER[…] and (UAS)4-ALP in the ratio of 1:1 together with Lipofectamine 2000 (GIBCOBRL) transfection agent and culture medium to form DNA-liposome complex for 5 hours. The sample to be assayed was added into the medium of transfected cells and cultivated for two days. The medium was aliquoted for ALP assay using 4-Nitrophenul phosphate disodium salt hexahydrate (pNPP) as the colorimetric substrate for alkaline phosphatase, and reading the absorbance of 405 nm.

[2] = molecular target: T1, GAL4-hERβ ligand binding domain (LBD) chimeric receptor; test: Transactivation assay, combination treatment with 1 nM E2 (ERβ); format: cell-based
From the text: as §2, §3

[3] = molecular target: T2, GAL4-hERα ligand binding domain (LBD) chimeric receptor (Homo sapiens, UniProt P03372); test: Transactivation assay for estrogen receptor, ALP reporter, compound alone (ERα); format: cell-based; settings: for Activation of ERα: under tested condition (maximum tolerable 2 μM); for Maximum activation for ERα: concentration not given
T2 construct: expressed in transfected cells; host or cells: CHO-K1 (Chinese hamster cells), transient co-transfection with (UAS)4-ALP reporter plasmid
T2 sequence (P03372 311-547 limits assumed): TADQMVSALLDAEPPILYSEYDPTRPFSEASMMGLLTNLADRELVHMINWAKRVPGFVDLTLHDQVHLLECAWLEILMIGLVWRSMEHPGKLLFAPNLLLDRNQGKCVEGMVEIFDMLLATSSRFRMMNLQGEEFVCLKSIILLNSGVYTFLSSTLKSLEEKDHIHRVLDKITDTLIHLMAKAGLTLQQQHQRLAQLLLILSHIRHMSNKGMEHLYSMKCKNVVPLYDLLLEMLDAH
From the text: as §1, §2
Cells in high confluence were plated onto 96-well culture plate the day before transfection. The plate was then washed to remove the serum during the day of transfection, followed by addition of two plasmid DNA, GAL4-hER[…] and (UAS)4-ALP in the ratio of 1:1 together with Lipofectamine 2000 (GIBCOBRL) transfection agent and culture medium to form DNA-liposome complex for 5 hours. The sample to be assayed was added into the medium of transfected cells and cultivated for two days.

[4] = molecular target: T2, GAL4-hERα ligand binding domain (LBD) chimeric receptor; test: Transactivation assay, combination treatment with 1 nM E2 (ERα); format: cell-based
From the text: as §2, §3

CHO-K1 cells = test: Cytotoxicity to the cells of the transactivation assay; format: cell-based, Chinese hamster

T1 sequence (Q92731 264-498 limits assumed, change not shown): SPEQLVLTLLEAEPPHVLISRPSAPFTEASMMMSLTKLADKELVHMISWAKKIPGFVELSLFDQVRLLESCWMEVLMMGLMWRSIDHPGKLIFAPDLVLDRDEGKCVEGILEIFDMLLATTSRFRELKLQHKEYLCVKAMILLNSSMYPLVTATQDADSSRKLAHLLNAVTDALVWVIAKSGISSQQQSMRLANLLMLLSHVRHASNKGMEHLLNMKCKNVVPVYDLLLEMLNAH

## CC1=C[C@H](O)CC(C)(C)[C@H]1/C=C/C(C)=C/C=C/C(C)=C/C=C/C=C(C)/C=C/C=C(C)/C=C/C1=C(C)C[C@@H](O)CC1(C)C [lutein, Lutein]
[1]; at 35 μM
  Maximum activation of ERβ: 26 % that of E2
[1]
  pEC50: 4.93
[2]; lutein at 18 (unit not given) + 1 nM E2
  Maximum activation of ERβ with E2: 166 % that of E2

## CC(C)=C/C=C/[C@@H](C)[C@H]1CC[C@@]2(C)[C@@H]3C=CC4=C(CC[C@H](O)C4(C)C)[C@]3(C=O)CC[C@]12C [compound 3, 3β-hydroxycucurbita-5(10),6,22(E),24-tetraen-19-al]
[3]
  Activation of ERα: no significant activation
[1]
  Activation of ERβ: no significant activation
[4]; 2 μM compound + 1 nM E2
  ALP activity, E2-induced ERα activation remaining (E2 = 100%): 48%
[2]; 2 μM compound + 1 nM E2
  ALP activity, E2-induced ERβ activation remaining (E2 = 100%): 73%
CHO-K1 cells
  Cytotoxicity: maximum tolerable concentration for cells: 2 µM

## CC(C)=C/C=C/[C@@H](C)[C@H]1CC[C@@]2(C)[C@@H]3C=C[C@@]45OC(=O)[C@]3(CC[C@]12C)C4CC[C@H](O)C5(C)C (stereo partly drawn) [compound 1, cucurbita-6,22(E),24-trien-3β-ol-19,5β-olide]
[3]; relative to 1 nM E2
  Maximum activation for ERα: 12 % of E2
[1]; relative to 1 nM E2
  Maximum activation for ERβ: 10 % of E2

## CC1(C)C[C@H](O)C[C@@]2(C)OC(=O)C=C12 [loliolide, Loliolide]
[3]; at 102 (unit not given)
  Maximum activation of ERα: 24 % of E2
[3]; compound alone
  pEC50: 4.85
[1]; at 51 μM
  Maximum activation of ERβ: 20 % of E2
[1]
  pEC50: 4.78
[4]; 102 μM + 1 nM E2
  Maximum activation of ERα with E2: 146 % of E2
[2]; 51 μM + 1 nM E2
  Maximum activation of ERβ with E2: 145 % of E2

## CC(C)=C/C=C/[C@@H](C)[C@H]1CC[C@@]2(C)[C@@H]3C=C[C@@]45OC(O)[C@]3(CC[C@]12C)C4CC[C@H](O)C5(C)C (stereo partly drawn) [compound 2, 5β,19-epoxycucurbita-6,22(E),24-trien-3β,19-diol]
[3]; relative to 1 nM E2
  Maximum activation for ERα: 15 % of E2
[1]; relative to 1 nM E2
  Maximum activation for ERβ: 8 % of E2

## CC(C)=C/C=C/[C@@H](C)[C@H]1CC[C@@]2(C)c3ccc4c(c3CC[C@]12C)CC[C@H](O)C4(C)C [compound 5, 19-nor-cucurbita-5(10),6,8,22(E),24-pentaen-3β-ol]
[3]; relative to 1 nM E2
  Maximum activation for ERα: 15 % of E2
[1]; relative to 1 nM E2
  Maximum activation for ERβ: 9 % of E2
[2]; 1 μM compound + 1 nM E2, p<0.05
  E2 induced activation of ERβ remaining: 83 % of E2

## CC(C)=CC(O)C[C@@H](C)[C@H]1CC[C@@]2(C)[C@@H]3C=C[C@@]45OC[C@]3(CC[C@]12C)C4CC[C@H](O)C5(C)C (single isomer, unassigned) [compound 6, 5β,19-epoxycucurbita-6,24-dien-3β,23ξ-diol]
[3]; at 22 μM, relative to 1 nM E2
  Maximum activation effect for ERα: 30 % of E2
[1]; at 22 μM, relative to 1 nM E2
  Maximum activation effect for ERβ: 23 % of E2
[4]; 22 μM compound + 1 nM E2
  ALP activity, E2-induced ERα activation remaining (E2 = 100%): 10%
[2]; 22 μM compound + 1 nM E2
  ALP activity, E2-induced ERβ activation remaining (E2 = 100%): 24%

## COC(OC)[C@@]12CC[C@]3(C)[C@@H]([C@H](C)/C=C/C=C(C)C)CC[C@@]3(C)[C@@H]1C=CC1=C2CC[C@H](O)C1(C)C [compound 4, 19-dimethoxycucurbita-5(10),6,22(E),24-tetraen-3β-ol]
[3]
  Activation of ERα: no significant activation
[1]
  Activation of ERβ: no significant activation
CHO-K1 cells
  Cytotoxicity: maximum tolerable concentration for cells: 2 µM
